Experimental data as given in patent US20220282217A1, “COMPOSITIONS AND METHODS FOR PREPARING T CELL COMPOSITIONS AND USES THEREOF” (priority 2019, published 2022).
Read-outs that look alike come from different tables or passages of the source. Where a SMILES comes first, the peptide text is derived from it.

Molecular target: HLA-A02.01 (Homo sapiens, UniProt P04439, D140Y/D185E/D98H/E176V/E277Q/G131W/G231S/I119V/I121R/I166T/I218V/L300P/L318F/N151K/N90K/P208A/P217A/Q86G/Q94H/R138H/R169H/T345S)
Experiment: Class I MHC peptide binding affinity (displacement of radiolabeled reference peptide)
Details: allele A02.01, (nM))
Procedure: In brief, MHCI complexes were prepared and bound to radiolabeled reference peptides. Peptides were incubated at varying concentrations with these complexes for 2 days, and the amount of remaining radiolabeled peptide bound to […] was measured using size exclusion gel-filtration.

[1] = read-out: Observed Affinity (IC50

## CC(C)C[C@H](NC(=O)[C@H](C)N)C(=O)N[C@@H](CCC(=O)O)C(=O)N[C@@H](CCC(=O)O)C(=O)N[C@@H](CCCCN)C(=O)N[C@@H](CCCCN)C(=O)NCC(=O)N[C@@H](CC(N)=O)C(=O)N[C@@H](Cc1ccc(O)cc1)C(=O)N[C@H](C(=O)O)C(C)C (H-ALEEKKGNYV-OH; N-terminus and C-terminus assumed)
[1]
  IC50: 141 nM

## CC(C)C[C@H](NC(=O)[C@H](C)N)C(=O)N[C@@H](Cc1ccccc1)C(=O)N[C@@H](Cc1ccccc1)C(=O)N[C@@H](Cc1ccccc1)C(=O)N[C@@H](Cc1ccccc1)C(=O)N[C@@H](Cc1ccccc1)C(=O)N[C@@H](CCC(=O)O)C(=O)N[C@H](C(=O)O)[C@@H](C)O (H-ALFFFFFET-OH; N-terminus and C-terminus assumed)
[1]
  IC50: 471 nM

## CSCC[C@H](NC(=O)[C@H](C)NC(=O)[C@H](CO)NC(=O)[C@H](CCSC)NC(=O)[C@H](CC(C)C)NC(=O)[C@H](C)N)C(=O)N[C@H](C(=O)N[C@H](C(=O)N[C@@H](CO)C(=O)O)[C@@H](C)O)[C@@H](C)O (H-ALMSAMTTS-OH; N-terminus and C-terminus assumed)
[1]
  IC50: 139 nM

## CC(C)C[C@H](NC(=O)[C@H](C)N)C(=O)N[C@@H](CC(N)=O)C(=O)N[C@@H](CO)C(=O)N[C@@H](CCC(=O)O)C(=O)N[C@@H](C)C(=O)N[C@@H](CC(C)C)C(=O)N[C@@H](CO)C(=O)N[C@H](C(=O)O)C(C)C (H-ALNSEALSV-OH)
[1]
  IC50: 14 nM

## CC(C)C[C@H](NC(=O)[C@H](C)N)C(=O)N[C@@H](CCC(N)=O)C(=O)N1CCC[C@H]1C(=O)N[C@@H](CC(C)C)C(=O)N[C@@H](CCC(N)=O)C(=O)N1CCC[C@H]1C(=O)N[C@@H](Cc1c[nH]cn1)C(=O)N[C@@H](C)C(=O)O (H-ALQPLQPHA-OH; N-terminus and C-terminus assumed)
[1]
  IC50: 604 nM

## CC(C)C[C@H](NC(=O)[C@H](C)N)C(=O)N[C@@H](Cc1c[nH]c2ccccc12)C(=O)N[C@@H](CCC(=O)O)C(=O)N[C@@H](CS)C(=O)N[C@@H](CO)C(=O)N[C@@H](CC(C)C)C(=O)N1CCC[C@H]1C(=O)N[C@@H](CCC(N)=O)C(=O)N[C@@H](C)C(=O)O (H-ALWECSLPQA-OH; N-terminus and C-terminus assumed)
[1]
  IC50: 9 nM

## CC(C)C[C@H](NC(=O)[C@H](CO)NC(=O)[C@H](CCCNC(=N)N)NC(=O)[C@H](Cc1c[nH]c2ccccc12)NC(=O)[C@H](CCC(N)=O)NC(=O)[C@@H](NC(=O)CNC(=O)[C@H](C)NC(=O)[C@H](CCC(N)=O)NC(=O)[C@H](C)N)C(C)C)C(=O)O (H-AQAGVQWRSL-OH; N-terminus and C-terminus assumed)
[1]
  IC50: 670 nM

## CC[C@H](C)[C@H](NC(=O)[C@@H]1CCCN1C(=O)[C@H](CCCNC(=N)N)NC(=O)[C@H](CCCNC(=N)N)NC(=O)[C@H](CC(N)=O)NC(=O)[C@H](CCSC)NC(=O)[C@H](CO)NC(=O)CNC(=O)[C@H](CCSC)NC(=O)[C@@H](N)CS)C(=O)O (H-CMGSMNRRPI-OH; N-terminus and C-terminus assumed)
[1]
  IC50: 1990 nM

## CC[C@H](C)[C@H](NC(=O)[C@H](CCC(N)=O)NC(=O)[C@H](Cc1c[nH]c2ccccc12)NC(=O)[C@H](Cc1ccccc1)NC(=O)CNC(=O)[C@H](CS)NC(=O)[C@H](CC(C)C)NC(=O)[C@H](C)NC(=O)[C@@H](N)Cc1ccccc1)C(=O)O (H-FALCGFWQI-OH; N-terminus and C-terminus assumed)
[1]
  IC50: 0.4 nM

## CC[C@H](C)[C@H](NC(=O)[C@@H]1CCCN1C(=O)[C@H](CC(C)C)NC(=O)[C@H](CC(C)C)NC(=O)[C@H](CCC(=O)O)NC(=O)[C@@H](N)Cc1ccccc1)C(=O)N1CCC[C@H]1C(=O)N1CCC[C@H]1C(=O)N[C@@H](CC(C)C)C(=O)O (H-FELLPIPPL-OH; N-terminus and C-terminus assumed)
Observed Affinity (IC50
  IC50: 553 nM

## CC(C)[C@H](NC(=O)[C@H](CO)NC(=O)[C@H](CS)NC(=O)[C@H](CO)NC(=O)[C@H](CCCCN)NC(=O)[C@@H](NC(=O)[C@H](CCC(=O)O)NC(=O)[C@H](Cc1ccccc1)NC(=O)[C@H](Cc1ccccc1)NC(=O)[C@@H](N)Cc1ccccc1)[C@@H](C)O)C(=O)O (H-FFFETKSCSV-OH; N-terminus and C-terminus assumed)
[1]
  IC50: 61.2 nM

## CC[C@H](C)[C@H](NC(=O)[C@@H](NC(=O)[C@H](CO)NC(=O)[C@H](Cc1ccccc1)NC(=O)[C@H](Cc1ccccc1)NC(=O)[C@@H](N)Cc1ccccc1)C(C)C)C(=O)N[C@@H](Cc1ccccc1)C(=O)N[C@@H](CO)C(=O)N[C@H](C(=O)O)[C@@H](C)O (H-FFFSVIFST-OH; N-terminus and C-terminus assumed)
[1]
  IC50: 4560 nM

## CC[C@H](C)[C@H](NC(=O)[C@@H](N)Cc1ccccc1)C(=O)N[C@@H](CC(C)C)C(=O)N[C@@H](CCSC)C(=O)N[C@@H](CCC(=O)O)C(=O)N[C@@H](CC(C)C)C(=O)N[C@@H](CCSC)C(=O)N[C@@H](C)C(=O)NCC(=O)NCC(=O)O (H-FILMELMAGG-OH; N-terminus and C-terminus assumed)
[1]
  IC50: 1580 nM

## CC(C)C[C@H](NC(=O)[C@H](Cc1ccccc1)NC(=O)[C@H](CO)NC(=O)[C@H](CC(C)C)NC(=O)[C@H](CS)NC(=O)[C@H](CO)NC(=O)[C@H](Cc1ccccc1)NC(=O)[C@H](CC(C)C)NC(=O)[C@H](CCCCN)NC(=O)[C@@H](N)Cc1ccccc1)C(=O)O (H-FKLFSCLSFL-OH; N-terminus and C-terminus assumed)
[1]
  IC50: 663 nM

## CC(C)C[C@H](NC(=O)[C@H](C)NC(=O)[C@H](CC(C)C)NC(=O)[C@H](CC(C)C)NC(=O)[C@@H](N)Cc1ccccc1)C(=O)N[C@@H](Cc1c[nH]c2ccccc12)C(=O)N[C@@H](CCC(=O)O)C(=O)N[C@@H](CS)C(=O)N[C@@H](CO)C(=O)O (H-FLLALWECS-OH; N-terminus and C-terminus assumed)
[1]
  IC50: 93.2 nM

## CSCC[C@H](NC(=O)[C@H](CCCNC(=N)N)NC(=O)[C@H](CCCNC(=N)N)NC(=O)[C@H](Cc1ccc(O)cc1)NC(=O)[C@H](CC(=O)O)NC(=O)[C@H](Cc1c[nH]c2ccccc12)NC(=O)[C@H](CO)NC(=O)[C@H](CO)NC(=O)[C@H](CC(C)C)NC(=O)[C@@H](N)Cc1ccccc1)C(=O)O (H-FLSSWDYRRM-OH; N-terminus and C-terminus assumed)
[1]
  IC50: 324 nM

## CC[C@H](C)[C@H](NC(=O)[C@H](CCCCN)NC(=O)[C@H](Cc1ccc(O)cc1)NC(=O)[C@@H](NC(=O)[C@@H](NC(=O)[C@H](CC(=O)O)NC(=O)[C@H](CO)NC(=O)[C@H](CCSC)NC(=O)[C@@H](NC(=O)[C@@H](N)Cc1ccccc1)C(C)C)[C@@H](C)O)[C@@H](C)O)C(=O)O (H-FVMSDTTYKI-OH; N-terminus and C-terminus assumed)
Observed Affinity (IC50
  IC50: 62.4 nM

## CC[C@H](C)[C@H](NC(=O)[C@H](CO)NC(=O)[C@H](CC(C)C)NC(=O)CN)C(=O)N[C@@H](CO)C(=O)N[C@@H](CS)C(=O)N[C@H](C(=O)N[C@H](C(=O)N[C@@H](CC(C)C)C(=O)O)[C@@H](C)O)[C@@H](C)O (H-GLSISCTTL-OH; N-terminus and C-terminus assumed)
[1]
  IC50: 114 nM

## CC[C@H](C)[C@H](NC(=O)[C@@H]1CCCN1C(=O)[C@H](CCCNC(=N)N)NC(=O)[C@H](CCC(N)=O)NC(=O)[C@H](CC(N)=O)NC(=O)[C@H](CCSC)NC(=O)CN)C(=O)N[C@@H](CC(C)C)C(=O)N[C@H](C(=O)O)[C@@H](C)O (H-GMNQRPILT-OH; N-terminus and C-terminus assumed)
[1]
  IC50: 3030 nM

## CC[C@H](C)[C@H](NC(=O)[C@@H]1CCCN1C(=O)[C@H](CCCNC(=N)N)NC(=O)[C@H](Cc1c[nH]c2ccccc12)NC(=O)[C@H](CC(N)=O)NC(=O)[C@H](CCSC)NC(=O)CN)C(=O)N[C@@H](CC(C)C)C(=O)N[C@H](C(=O)O)[C@@H](C)O (H-GMNWRPILT-OH; N-terminus and C-terminus assumed)
[1]
  IC50: 1130 nM

## CC[C@H](C)[C@H](NC(=O)[C@H](CC(N)=O)NC(=O)[C@H](CCSC)NC(=O)[C@@H](N)Cc1c[nH]cn1)C(=O)N[C@@H](C)C(=O)N[C@@H](CC(N)=O)C(=O)N[C@@H](CC(C)C)C(=O)N[C@@H](CC(C)C)C(=O)NCC(=O)N[C@@H](C)C(=O)O (H-HMNIANLLGA-OH; N-terminus and C-terminus assumed)
Observed Affinity (IC50
  IC50: 430 nM

## CC[C@H](C)[C@H](N)C(=O)N[C@@H](C)C(=O)N[C@@H](CC(N)=O)C(=O)N[C@@H](CC(C)C)C(=O)N[C@@H](CC(C)C)C(=O)NCC(=O)N[C@@H](C)C(=O)N[C@@H](CS)C(=O)N[C@H](C(=O)N[C@H](C(=O)O)[C@@H](C)CC)[C@@H](C)O (H-IANLLGACTI-OH; N-terminus and C-terminus assumed)
[1]
  IC50: 6420 nM

## CC[C@H](C)[C@H](N)C(=O)N[C@H](C(=O)N[C@@H](CCC(=O)O)C(=O)N[C@@H](Cc1ccccc1)C(=O)N[C@@H](CCSC)C(=O)N[C@H](C(=O)N[C@@H](Cc1ccc(O)cc1)C(=O)NCC(=O)N[C@@H](CC(N)=O)C(=O)N[C@@H](CC(C)C)C(=O)O)[C@@H](C)O)[C@@H](C)CC (H-IIEFMTYGNL-OH; N-terminus and C-terminus assumed)
Observed Affinity (IC50
  IC50: 9700 nM

## CC[C@H](C)[C@H](N)C(=O)N[C@H](C(=O)N[C@@H](CCC(=O)O)C(=O)N[C@@H](Cc1ccc(O)cc1)C(=O)N[C@@H](CS)C(=O)N[C@@H](Cc1ccccc1)C(=O)N[C@@H](Cc1ccc(O)cc1)C(=O)NCC(=O)N[C@@H](CC(=O)O)C(=O)N[C@@H](CC(C)C)C(=O)O)[C@@H](C)CC (H-IIEYCFYGDL-OH; N-terminus and C-terminus assumed)
[1]
  IC50: 1090 nM

## CC[C@H](C)[C@H](N)C(=O)N[C@H](C(=O)N[C@H](C(=O)N[C@@H](CCC(=O)O)C(=O)N[C@@H](Cc1ccccc1)C(=O)N[C@@H](CCSC)C(=O)N[C@H](C(=O)N[C@@H](Cc1ccc(O)cc1)C(=O)NCC(=O)O)[C@@H](C)O)[C@@H](C)CC)[C@@H](C)CC (H-IIIEFMTYG-OH; N-terminus and C-terminus assumed)
Observed Affinity (IC50
  IC50: 779 nM

## CC[C@H](C)[C@H](N)C(=O)N[C@@H](CC(C)C)C(=O)N[C@H](C(=O)N[C@@H](CCCNC(=N)N)C(=O)N[C@@H](CCCCN)C(=O)N[C@@H](C)C(=O)N[C@@H](CCSC)C(=O)N[C@H](C(=O)N[C@H](C(=O)O)C(C)C)[C@@H](C)O)[C@@H](C)CC (H-ILIRKAMTV-OH; N-terminus and C-terminus assumed)
[1]
  IC50: 19.5 nM
